The results in this text go back to patent US10035800B2 (AbbVie Inc., priority 2013, dated 2018).

The target of one experiment is T1, BRD4 (BDII_E352-M457) (Homo sapiens, UniProt O60885).
T1 construct: protocol; made in house
Kind of experiment: TR-FRET bromodomain binding assay, second bromodomain of BRD4. To be noted: TR-FRET assay protocol G (compound 0.92 μM-15 pM); 30 nM probe. The method in brief:
(§1)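 Probe displacement by TR-FRET: 8 nM His-BRD4 bromodomain, 1 nM Eu-anti-His, Alexa647 BET-inhibitor probe at 100 nM (BDI) or 30 nM (BDII); 20 mM Na phosphate pH 6.0, 2% DMSO; 1 h RT. Ex 340, Em 495/520. IC50 from 4PL fit; Ki from IC50, probe Kd and probe concentration.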
In general terms: Time-resolved FRET reads energy transfer from a long-lived donor to a nearby acceptor.

For another experiment, the target named is T2, BRD4 (BDI_K57-E168) (Homo sapiens, UniProt O60885).
T2 construct: BD1: amino acids K57-E168; made in house
Kind of experiment: TR-FRET bromodomain binding assay, first bromodomain of BRD4. To be noted: TR-FRET assay protocol G (compound 0.92 μM-15 pM); 100 nM probe. The method in brief: as §1

In experiment [1] the test system is breast cancer cell line MX-1. Kind of experiment: MX-1 cell line proliferation assay. The settings on record: MX-1 cells, 3-day proliferation assay, Cell Titer Glo; read-out: Cellular proliferation: EC50. Type of experiment: cell-based. The method in brief: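 MX-1 cells at 5000/well, in RPMI 1640 with 10% FBS, were exposed to compounds for 3 days. Final concentrations ranged 3 μM–0.1 nM or 1 μM–0.03 nM, in 3-fold steps. Cell Titer Glo luminescence was normalized to DMSO and fitted sigmoidally for EC50; overall MSR 2.1.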
For orientation: Cellular ATP, detected with luciferase, serves as a proxy for viable cell number.

The structures appear in SMILES notation. pEC50, pKi: −log10 of the molar value.

In the case of `Cn1cc2c3c(c[nH]c3c1=O)C(c1cccc3cccnc13)N(c1ccc(F)cc1F)c1ccc(CS(C)(=O)=O)cc1-2` (stereo not drawn) [Example 231, 4-(2,4-difluorophenyl)-10-methyl-7-((methylsulfonyl)methyl)-3-(quinolin-8-yl)-3,4-dihydro-1H-1,4,10-triazadibenzo[cd,f]azulen-11(10H)-one], the pKi – broadly, −log10 of the Ki, conventionally taken in molar units – at BRD4 (BDII_E352-M457) was 8.27; at BRD4 (BDI_K57-E168), 7.41. Also, the pEC50 in experiment [1] is 6.83.
In the case of `Cn1cc2c3c(c[nH]c3c1=O)C(c1ccccn1)N(c1ccc(F)cc1F)c1ccc(CS(C)(=O)=O)cc1-2` (stereo not drawn) [Example 232, 4-(2,4-difluorophenyl)-10-methyl-7-((methylsulfonyl)methyl)-3-(pyridin-2-yl)-3,4-dihydro-1H-1,4,10-triazadibenzo[cd,f]azulen-11(10H)-one], the negative logarithm of the Ki (pKi) on BRD4 (BDII_E352-M457) is 8.07; at BRD4 (BDI_K57-E168) it was 6.97. Further, the pEC50 in experiment [1] was 6.44.
For `Cn1cc2c3c(c[nH]c3c1=O)C(c1cccc(C#N)c1)N(c1ccc(F)cc1F)c1ccc(CS(C)(=O)=O)cc1-2` (stereo not drawn) [Example 237, 3-(4-(2,4-difluorophenyl)-10-methyl-7-((methylsulfonyl)methyl)-11-oxo-3,4,10,11-tetrahydro-1H-1,4,10-triazadibenzo[cd,f]azulen-3-yl)benzonitrile], the results for the negative logarithm of the Ki (pKi) on BRD4 (BDII_E352-M457) and at BRD4 (BDI_K57-E168) were 7.92 and 7.66, respectively. Also, the pEC50 in experiment [1] was 6.50.
Regarding `Cn1cc2c3c(c[nH]c3c1=O)C(Cn1ccccc1=O)N(c1ccc(F)cc1F)c1ccc(CS(C)(=O)=O)cc1-2` (stereo not drawn) [Example 238, 4-(2,4-difluorophenyl)-10-methyl-7-((methylsulfonyl)methyl)-3-((2-oxopyridin-1(2H)-yl)methyl)-3,4-dihydro-1H-1,4,10-triazadibenzo[cd,f]azulen-11(10H)-one], the values for the pKi on BRD4 (BDII_E352-M457) and at BRD4 (BDI_K57-E168) were 8.34 and 7.21, respectively. Further, the pEC50 in experiment [1] was 6.56.
In the case of `CCNC(=O)c1[nH]c2c(=O)n(C)cc3c2c1C(C(=O)OCC)N(c1ccc(F)cc1F)c1ccc(CS(C)(=O)=O)cc1-3` (stereo not drawn) [Example 239, ethyl 4-(2,4-difluorophenyl)-2-(ethylcarbamoyl)-10-methyl-7-((methylsulfonyl)methyl)-11-oxo-3,4,10,11-tetrahydro-1H-1,4,10-triazadibenzo[cd,f]azulene-3-carboxylate], the negative logarithm of the Ki (pKi) is 8.67 at BRD4 (BDII_E352-M457) and 7.50 at BRD4 (BDI_K57-E168). In experiment [1], the pEC50 was 6.53.
Take `Cn1cc2c3c(c[nH]c3c1=O)CN(c1ccc(F)cc1F)c1c(C(N)=O)cc(CS(C)(=O)=O)cc1-2` [Example 240, 4-(2,4-difluorophenyl)-10-methyl-7-((methylsulfonyl)methyl)-11-oxo-3,4,10,11-tetrahydro-1H-1,4,10-triazadibenzo[cd,f]azulene-5-carboxamide]: the values for the negative logarithm of the Ki (pKi) at BRD4 (BDII_E352-M457) and on BRD4 (BDI_K57-E168) were 8.71 and 8.50, respectively. For the same compound, the pEC50 in experiment [1] is 7.07.
Regarding `CNC(=O)c1cc(CS(C)(=O)=O)cc2c1N(c1ccc(F)cc1F)Cc1c[nH]c3c(=O)n(C)cc-2c13` [Example 241, 4-(2,4-difluorophenyl)-N,10-dimethyl-7-((methylsulfonyl)methyl)-11-oxo-3,4,10,11-tetrahydro-1H-1,4,10-triazadibenzo[cd,f]azulene-5-carboxamide], the pKi at BRD4 (BDII_E352-M457) was 8.75; on BRD4 (BDI_K57-E168), 8.51. The pEC50 in experiment [1] is 7.29.
In the case of `CN(C)C(=O)c1cc(CS(C)(=O)=O)cc2c1N(c1ccc(F)cc1F)Cc1c[nH]c3c(=O)n(C)cc-2c13` [Example 242, 4-(2,4-difluorophenyl)-N,N,10-trimethyl-7-((methylsulfonyl)methyl)-11-oxo-3,4,10,11-tetrahydro-1H-1,4,10-triazadibenzo[cd,f]azulene-5-carboxamide], the pKi on BRD4 (BDII_E352-M457) was 8.42; at BRD4 (BDI_K57-E168), 7.90. Besides, the pEC50 in experiment [1] is under 6.00.
Regarding `Cn1cc2c3c(c[nH]c3c1=O)CN(c1cccnc1)c1ccc(CS(C)(=O)=O)cc1-2` [Example 244, 10-methyl-7-((methylsulfonyl)methyl)-4-(pyridin-3-yl)-3,4-dihydro-1H-1,4,10-triazadibenzo[cd,f]azulen-11(10H)-one], the figures for the negative logarithm of the Ki (pKi) on BRD4 (BDII_E352-M457) and at BRD4 (BDI_K57-E168) were 8.99 and 9.37, respectively. In addition, the pEC50 in experiment [1] was 8.67.
Take `Cn1cc2c3c(c[nH]c3c1=O)CN(c1ccc(Cl)cn1)c1ccc(CS(C)(=O)=O)cc1-2` [Example 245, 4-(5-chloropyridin-2-yl)-10-methyl-7-((methylsulfonyl)methyl)-3,4-dihydro-1H-1,4,10-triazadibenzo[cd,f]azulen-11(10H)-one]: the pKi is 9.03 on BRD4 (BDII_E352-M457) and 9.27 at BRD4 (BDI_K57-E168). Besides, the pEC50 in experiment [1] was 8.96.
In the case of `Cn1cc2c3c(c[nH]c3c1=O)CN(Cc1ccccc1)c1ccc(CS(C)(=O)=O)cc1-2` [Example 247, 4-benzyl-10-methyl-7-((methylsulfonyl)methyl)-3,4-dihydro-1H-1,4,10-triazadibenzo[cd,f]azulen-11(10H)-one], the pKi on BRD4 (BDII_E352-M457) was 8.62; at BRD4 (BDI_K57-E168) it was 8.65. For the same compound, in experiment [1], the pEC50 is 8.31.
Take `Cn1cc2c3c(c[nH]c3c1=O)CN(c1cncnc1)c1ccc(CS(C)(=O)=O)cc1-2` [Example 248, 10-methyl-7-((methylsulfonyl)methyl)-4-(pyrimidin-5-yl)-3,4-dihydro-1H-1,4,10-triazadibenzo[cd,f]azulen-11(10H)-one]: the results for the negative-log Ki (pKi) at BRD4 (BDII_E352-M457) and at BRD4 (BDI_K57-E168) were 8.48 and 8.47, respectively. Moreover, the pEC50 in experiment [1] is 7.59.
The like results for `Cn1cc2c3c(c[nH]c3c1=O)CN(Cc1ccccn1)c1ccc(CS(C)(=O)=O)cc1-2` [Example 249, 10-methyl-7-((methylsulfonyl)methyl)-4-(pyridin-2-ylmethyl)-3,4-dihydro-1H-1,4,10-triazadibenzo[cd,f]azulen-11(10H)-one] were, in that order, 7.72, 8.21 and 7.75.
In the case of `Cn1cc2c3c(c[nH]c3c1=O)CN(Cc1cccnn1)c1ccc(CS(C)(=O)=O)cc1-2` [Example 250, 10-methyl-7-((methylsulfonyl)methyl)-4-(pyridazin-3-ylmethyl)-3,4-dihydro-1H-1,4,10-triazadibenzo[cd,f]azulen-11(10H)-one], the negative logarithm of the Ki (pKi) was 7.65 at BRD4 (BDII_E352-M457) and 8.06 at BRD4 (BDI_K57-E168). In addition, the pEC50 in experiment [1] was 6.07.
With `Cn1cc2c3c(c[nH]c3c1=O)CN(c1ccc(C(F)(F)F)cn1)c1ccc(CS(C)(=O)=O)cc1-2` [Example 253, 10-methyl-7-((methylsulfonyl)methyl)-4-(5-(trifluoromethyl)pyridin-2-yl)-3,4-dihydro-1H-1,4,10-triazadibenzo[cd,f]azulen-11(10H)-one], the pKi is 8.93 at BRD4 (BDII_E352-M457) and 9.15 on BRD4 (BDI_K57-E168). Besides, the pEC50 in experiment [1] is 8.89.
The like results for `Cn1ccc(CN2Cc3c[nH]c4c(=O)n(C)cc(c34)-c3cc(CS(C)(=O)=O)ccc32)n1` [Example 255, 10-methyl-4-((1-methyl-1H-pyrazol-3-yl)methyl)-7-((methylsulfonyl)methyl)-3,4-dihydro-1H-1,4,10-triazadibenzo[cd,f]azulen-11(10H)-one] were, in that order, 8.13, 8.34 and 7.46.
The like results for `Cn1cc2c3c(c[nH]c3c1=O)CN(CC(C)(C)CN1CCOCC1)c1ccc(CS(C)(=O)=O)cc1-2` [Example 257, 4-(2,2-dimethyl-3-morpholinopropyl)-10-methyl-7-((methylsulfonyl)methyl)-3,4-dihydro-1H-1,4,10-triazadibenzo[cd,f]azulen-11(10H)-one] were, in that order, 8.04, 8.63 and 7.68.
